Source: patent US9682955B2, “Quinazoline derivatives useful as CB-1 inverse agonists” (Janssen Pharmaceutica NV, priority 2014, dated 2017)

Tests used:
[1] = target: Human CB1R (Cannabanoid receptor 1) (Homo sapiens (Human), UniProt P21554); assay: CB-1 in vitro cAMP assay (HTRF); format: cell-based; details: mean where tested more than once
Outline: (§1)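 HEK-293 cells stably transfected with the human receptor, plated overnight at 4E5 cells/mL. Compounds given as 1/3 serial dilutions from 10 mM DMSO stocks. Stimulation in HBSS/5 mM HEPES/0.1% BSA with 0.5 mM IBMX and forskolin (1.5 μM in buffer); cAMP measured by competitive HTRF immunoassay (d2-cAMP, cryptate anti-cAMP) against a cAMP standard curve.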

[2] = target: Human CB2R (Cannabanoid receptor 2) (Homo sapiens (Human), UniProt P34972); assay: CB-2 in vitro cAMP assay (HTRF); format: cell-based; details: mean where tested more than once
Chain of Human CB2R (Cannabanoid receptor 2) (P34972 whole entry): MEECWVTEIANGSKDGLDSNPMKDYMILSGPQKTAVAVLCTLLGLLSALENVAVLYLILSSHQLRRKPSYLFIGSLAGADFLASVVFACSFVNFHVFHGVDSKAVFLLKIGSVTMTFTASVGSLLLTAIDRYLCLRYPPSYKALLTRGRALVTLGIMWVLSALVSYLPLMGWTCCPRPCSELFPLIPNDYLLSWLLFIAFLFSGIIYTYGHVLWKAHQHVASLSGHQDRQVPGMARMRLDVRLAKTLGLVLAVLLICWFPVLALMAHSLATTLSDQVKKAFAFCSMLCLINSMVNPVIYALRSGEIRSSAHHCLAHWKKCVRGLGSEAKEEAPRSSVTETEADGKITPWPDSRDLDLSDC
Outline: as §1

Chain of Human CB1R (Cannabanoid receptor 1) (P21554 whole entry): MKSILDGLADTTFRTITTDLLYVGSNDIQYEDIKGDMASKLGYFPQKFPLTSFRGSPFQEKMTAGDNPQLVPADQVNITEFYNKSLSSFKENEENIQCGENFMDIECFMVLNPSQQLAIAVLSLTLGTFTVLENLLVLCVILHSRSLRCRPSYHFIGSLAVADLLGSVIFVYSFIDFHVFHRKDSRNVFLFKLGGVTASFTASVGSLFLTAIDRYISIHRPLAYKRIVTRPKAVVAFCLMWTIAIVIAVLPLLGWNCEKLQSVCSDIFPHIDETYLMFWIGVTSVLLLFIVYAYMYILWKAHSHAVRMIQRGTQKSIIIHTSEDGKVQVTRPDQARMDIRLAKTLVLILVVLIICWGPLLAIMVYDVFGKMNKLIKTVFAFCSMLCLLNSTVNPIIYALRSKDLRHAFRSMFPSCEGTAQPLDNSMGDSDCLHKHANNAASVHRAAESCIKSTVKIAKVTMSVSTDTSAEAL

EC50 [1] [nM] | EC50 [2] [nM] | SMILES
8 | 2850 | O=S(=O)(N1CCC(CNc2ncnc3ccc(C(c4ccc(Cl)cc4)c4ccc(Cl)cc4)cc23)CC1)C(F)(F)F [compound 135, 6-(bis(4-chlorophenyl)methyl)-N-((1-(trifluoromethylsulfonyl)piperidin-4-yl)methyl)quinazolin-4-amine]
30 | 1720 | FC(F)(F)c1ccc(CNc2ncnc3ccc(C(c4ccc(Cl)cc4)c4ccc(Cl)cc4)cc23)nc1 [compound 127, 6-(bis(4-chlorophenyl)methyl)-N-((5-(trifluoromethyl)pyridin-2-yl)methyl)quinazolin-4-amine]
120 | > 10000 | Oc1ccc(CN2CCC(Nc3ncnc4ccc(C(c5ccc(Cl)cc5)c5ccc(Cl)cc5)cc34)CC2)cc1 [compound 27, 4-((4-(6-(bis(4-chlorophenyl)methyl)quinazolin-4-ylamino)piperidin-1-yl)methyl)phenol]
583 | 3340 | O=C(O)COc1nc(NCc2cccc(C(F)(F)F)c2)c2cc(C(c3ccc(Cl)cc3)c3ccc(Cl)cc3)ccc2n1 [compound 51, 2-((6-(bis(4-chlorophenyl)methyl)-4-((3-(trifluoromethyl)benzyl)amino)quinazolin-2-yl)oxy)acetic acid]
5750 | > 10000 | O=C(CC(=O)N1CCC(Nc2ncnc3ccc(C(c4ccc(Cl)cc4)c4ccc(Cl)cc4)cc23)CC1)NCCO [compound 82, 3-(4-(6-(bis(4-chlorophenyl)methyl)quinazolin-4-ylamino)piperidin-1-yl)-N-(2-hydroxyethyl)-3-oxopropanamide]
8 | 2500 | CC(Nc1ncnc2ccc(C(c3ccc(Cl)cc3)c3ccc(Cl)cc3)cc12)c1ccc(C(F)(F)F)cc1 (centres unmarked) [compound 116, 6-(bis(4-chlorophenyl)methyl)-N-(1-(4-(trifluoromethyl)phenyl)ethyl)quinazolin-4-amine]
106 | 3880 | O=C(O)c1cccc(S(=O)(=O)N2CCC(Nc3ncnc4ccc(C(c5ccc(Cl)cc5)c5ccc(Cl)cc5)cc34)CC2)c1 [compound 101, 3-(4-(6-(bis(4-chlorophenyl)methyl)quinazolin-4-ylamino)piperidin-1-ylsulfonyl)benzoic acid]
3 | 72 | FC(F)(F)c1ccc(N2CCC(Nc3ncnc4ccc(C(c5ccc(Cl)cc5)c5ccc(Cl)cc5)cc34)CC2)cc1 [compound 129, 6-(bis(4-chlorophenyl)methyl)-N-(1-(4-(trifluoromethyl)phenyl)piperidin-4-yl)quinazolin-4-amine]
799 | > 10000 | O=C(O)CC(=O)N1CCC(Nc2ncnc3ccc(C(c4ccc(Cl)cc4)c4ccc(Cl)cc4)cc23)CC1 [compound 88, 3-(4-(6-(bis(4-chlorophenyl)methyl)quinazolin-4-ylamino)piperidin-1-yl)-3-oxopropanoic acid]
3 | 2140 | O=S(=O)(c1ccc(F)cc1)N1CCC(Nc2ncnc3ccc(C(c4ccc(Cl)cc4)c4ccc(Cl)cc4)cc23)CC1 [compound 121, 6-(bis(4-chlorophenyl)methyl)-N-(1-(4-fluorophenylsulfonyl)piperidin-4-yl)quinazolin-4-amine]
580 | > 10000 | O=C(O)c1ccc(CN2CCC(Nc3ncnc4ccc(C(c5ccc(Cl)cc5)c5ccc(Cl)cc5)cc34)CC2)cc1 [compound 44, 4-((4-(6-(bis(4-chlorophenyl)methyl)quinazolin-4-ylamino)piperidin-1-yl)methyl)benzoic acid]

Second part, the compound before the results:

SMILES | EC50 [1] [nM] | EC50 [2] [nM]
O=C(O)c1ccc(C(c2ccc(Cl)cc2)c2ccc3ncnc(NC4CCN(S(=O)(=O)C(F)(F)F)CC4)c3c2)cc1 (centres unmarked) [Compound #16, 4-((4-chlorophenyl)(4-((1-((trifluoromethyl)sulfonyl)piperidin-4-yl)amino)quinazolin-6-yl)methyl)benzoic acid] | 343 | > 10000
CS(=O)(=O)NCCOc1nc(NC2CCN(S(=O)(=O)c3ccc(C(=O)O)cc3)CC2)c2cc(C(c3ccc(Cl)cc3)c3ccc(Cl)cc3)ccc2n1 [Compound #33, 4-((4-((6-(bis(4-chlorophenyl)methyl)-2-(2-(methylsulfonamido)ethoxy)quinazolin-4-yl)amino)piperidin-1-yl)sulfonyl)benzoic acid] | 227 | 917
OCCCCOc1nc(NCc2cccc(C(F)(F)F)c2)c2cc(C(c3ccc(Cl)cc3)c3ccc(Cl)cc3)ccc2n1 [Compound #53, 4-((6-(bis(4-chlorophenyl)methyl)-4-((3-(trifluoromethyl)benzyl)amino)quinazolin-2-yl)oxy)butan-1-ol] | 42 | 3700
CC(=O)NCCOc1nc(NCc2ccc(C(F)(F)F)cc2)c2cc(C(c3ccc(Cl)cc3)c3ccc(Cl)cc3)ccc2n1 [Compound #69, N-(2-((6-(bis(4-chlorophenyl)methyl)-4-((4-(trifluoromethyl)benzyl)amino)quinazolin-2-yl)oxy)ethyl)acetamide] | 98 | > 10000
COC(=O)c1cccc(CNc2ncnc3ccc(C(c4ccc(Cl)cc4)c4ccc(Cl)cc4)cc23)c1 [Compound #62, Methyl 3-(((6-(bis(4-chlorophenyl)methyl)quinazolin-4-yl)amino)methyl)benzoate] | 14 | 8080
CC(=O)Nc1nc(NC2CCN(S(=O)(=O)C(F)(F)F)CC2)c2cc(C(c3ccc(Cl)cc3)c3ccc(Cl)cc3)ccc2n1 [Compound #106, N-(6-(bis(4-chlorophenyl)methyl)-4-((1-((trifluoromethyl)sulfonyl)piperidin-4-yl)amino)quinazolin-2-yl)acetamide] | 70 | 5700
NC(=O)CS(=O)(=O)N1CCC(Nc2ncnc3ccc(C(c4ccc(Cl)cc4)c4ccc(Cl)cc4)cc23)CC1 [Compound #98, 2-((4-((6-(bis(4-chlorophenyl)methyl)quinazolin-4-yl)amino)piperidin-1-yl)sulfonyl)acetamide] | 232 | 7900
COC(=O)c1ccc(N2CCC(Nc3ncnc4ccc(C(c5ccc(Cl)cc5)c5ccc(Cl)cc5)cc34)CC2)cc1 [Compound #94, methyl 4-(4-((6-(bis(4-chlorophenyl)methyl)quinazolin-4-yl)amino)piperidin-1-yl)benzoate] | 4 | 68
O=C(O)c1ccc(CN2CCC(Nc3ncnc4ccc(C(c5ccc(Cl)cc5)c5ccc(Cl)cc5)cc34)C2)cc1 (centres unmarked) [Compound #14, 4-((3-((6-(bis(4-chlorophenyl)methyl)quinazolin-4-yl)amino)pyrrolidin-1-yl)methyl)benzoic acid] | 1120 | 8700
COc1ccc(C(c2ccc(Cl)cc2)c2ccc3ncnc(NC4CCN(c5ccccc5)CC4)c3c2)cc1 (centres unmarked) [Compound #58, 6-((4-chlorophenyl)(4-methoxyphenyl)methyl)-N-(1-phenylpiperidin-4-yl)quinazolin-4-amine] | 0.5 | 67
Clc1ccc(C(c2ccc(Cl)cc2)c2ccc3ncnc(NC4CCN(c5ncccn5)CC4)c3c2)cc1 [Compound #139, 6-(bis(4-chlorophenyl)methyl)-N-(1-(pyrimidin-2-yl)piperidin-4-yl)quinazolin-4-amine] | 2 | 771
